In PubChem BioAssay AID651659 (Broad Institute, 2012):
Calls of active or inactive are those of the source.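 How the source made its calls: active means signal drops, with AC50 within twice each sample's top valid tested dose; inconclusive means flat curve at 30 to 70% inhibition, or poor fit; inactive means signal moves against the expected drop, plus the rest.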

target: Mitogen-activated protein kinase 3 (Homo sapiens) (UniProt P27361); test: ERK1 kinase inhibitors, dose response, selectivity assay for Dyrk1A inhibitor NFAT project, biochemical, ADP-Glo luminescence, dry powder, set 2 (AID 651659); conditions: 120 min
Sequence (P27361 whole entry, looked up): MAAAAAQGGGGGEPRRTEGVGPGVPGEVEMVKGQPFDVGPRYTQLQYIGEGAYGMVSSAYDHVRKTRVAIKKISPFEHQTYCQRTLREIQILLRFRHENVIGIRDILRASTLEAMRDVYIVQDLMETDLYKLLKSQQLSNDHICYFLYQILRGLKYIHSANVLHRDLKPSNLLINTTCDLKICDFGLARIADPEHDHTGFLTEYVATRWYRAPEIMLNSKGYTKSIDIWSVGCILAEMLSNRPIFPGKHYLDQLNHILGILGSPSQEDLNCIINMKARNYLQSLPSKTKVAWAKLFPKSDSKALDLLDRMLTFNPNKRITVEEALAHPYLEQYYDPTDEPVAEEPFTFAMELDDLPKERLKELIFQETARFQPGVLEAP

| AC50 | SMILES |
| --- | --- |
| 5.91 µM | CN(CC(=O)Nc1nc2ccc(Cl)cc2s1)S(=O)(=O)c1ccc(C#N)cc1 |
| > 20 µM (inactive) | COc1ccc(-c2csc(NC(=O)CSCC(=O)N3CCCC3)n2)cc1 |
| > 20 µM (inactive) | CN(CC(=O)Nc1nc2ccc(F)cc2s1)S(=O)(=O)c1ccc(Cl)cc1 |

same assay, conditions: 120 min, at 1.1 µM (top of the series)

| activity change, negative = inhibition | SMILES |
| --- | --- |
| inactive | CC(C)n1cnc2cc(NCc3cccc4ccccc34)ccc21 |

same assay, conditions: 120 min, at 10 µM (top of the series)

| SMILES | activity change, negative = inhibition |
| --- | --- |
| COc1ccc2nc(NC(=O)C3CCN(S(=O)(=O)c4cccnc4)CC3)sc2c1 | inactive |
| CCOc1ccc2nc(NC(=O)COc3ccc(Cl)c(OC)c3)sc2c1 | inactive |
| COc1ccc2nc(NC(=O)C3CCN(S(=O)(=O)c4cccc5nonc45)CC3)sc2c1 | inactive |
| COc1ccc2nc(NC(=O)C3CCN(S(=O)(=O)c4cccc5nsnc45)CC3)sc2c1 | inactive |
| COc1ccc2c(Cl)c(C(=O)NC(C)C)sc2c1 | inactive |
| O=C(NCc1ccccc1)c1sc2ccccc2c1Cl | inactive |
| COc1ccc(C2=Nn3c(nnc3-c3cccnc3)SC2)cc1OC | inactive |
| COc1ccc2nc(NC(=O)C3CCCN(S(=O)(=O)c4cccc5nsnc45)C3)sc2c1 (stereo not given) | inactive |
| O=C(NCc1ccco1)c1sc2ccccc2c1Cl | inactive |
| COc1ccc2c(Cl)c(C(N)=O)sc2c1 | inactive |
| COc1ccc(OC)c(C2=Nn3c(nnc3-c3ccccc3)SC2)c1 | inactive |
| COc1ccc2nc(NC(=O)C3CCCN(S(=O)(=O)c4cccc5nonc45)C3)sc2c1 (stereo not given) | inactive |
| COc1ccc(OC)c(CNC(=O)c2sc3ccccc3c2Cl)c1 | inactive |
| COc1ccc(C2=Nn3c(nnc3-c3cccnc3)SC2)cc1 | inactive |
| COc1ccc2c(Cl)c(C(=O)NCc3cccnc3)sc2c1 | inactive |
| COc1ccc(OC)c(C2=Nn3c(nnc3-c3ccncc3)SC2)c1 | inactive |
| COc1ccc(OC)c(C2=Nn3c(nnc3-c3ccccn3)SC2)c1 | inactive |
| Cc1csc(NC(=O)C2CCCN(S(=O)(=O)c3cccc4nonc34)C2)n1 (stereo not given) | inactive |
| CN(CC(=O)Nc1nccs1)S(=O)(=O)c1ccc(Cl)cc1 | inactive |
| COc1ccc2c(c1)[nH]c1c(C)nccc12 | inactive |
| COc1cccc(C2=Nn3c(nnc3-c3ccccc3)SC2)c1 | inactive |
| C=CCn1cnc2scc(-c3ccc(OC)cc3)c2c1=O | inactive |
| COc1ccc(C2=Nn3c(nnc3-c3ccncc3)SC2)cc1 | inactive |

The remaining lines, values ahead:

| activity change, negative = inhibition | SMILES |
| --- | --- |
| inactive | COc1ccc(NC(=O)C2CCCN(S(=O)(=O)c3cccc4nonc34)C2)cc1 (stereo not given) |
| inactive | COc1ccc2nc(NC(=O)C3CCN(S(=O)(=O)c4ccc(C)cc4)CC3)sc2c1 |
| inactive | Cc1sc(NC(=O)CSCc2ccccc2)nc1-c1ccccc1 |
| inactive | Cc1ccc(S(=O)(=O)N(C)CC(=O)Nc2nc3ccccc3s2)cc1 |
| inactive | COc1ccc2nc(NC(=O)C3CCCN(S(=O)(=O)c4cccc5cccnc45)C3)sc2c1 (stereo not given) |
| inactive | CN(CC(=O)Nc1nc2ccccc2s1)S(=O)(=O)c1ccccc1 |
| inactive | Clc1ccc(CSc2nc(Nc3ccc4c(c3)OCO4)c3ccccc3n2)cc1 |
| inactive | COc1ccc2nc(NC(=O)CN(C)S(=O)(=O)c3ccc(F)cc3)sc2c1 |
| inactive | CN(CC(=O)Nc1nc2ccccc2s1)S(=O)(=O)c1ccc(Cl)cc1 |
| inactive | Cc1ccccc1S(=O)(=O)Cc1ccc(C(=O)NC(C)c2ccc3c(c2)OCCO3)o1 (stereo not given) |
| inactive | COc1ccc2c(Cl)c(C(=O)NCc3ccccc3)sc2c1 |
| inactive | Cc1ccc(S(=O)(=O)N(C)CC(=O)Nc2nc3ccc(Cl)cc3s2)cc1C |
| inactive | Cc1cccc2sc(NC(=O)CN(C)S(=O)(=O)c3ccc(Cl)cc3)nc12 |
| inactive | COc1ccc(S(=O)(=O)N2CCCC(C(=O)Nc3nc4ccccc4s3)C2)cc1 (stereo not given) |
| inactive | CCCCN(c1nc2ccccc2s1)S(=O)(=O)c1ccc(Cl)cc1 |
| inactive | COc1ccc(CNC(=O)c2sc3ccccc3c2Cl)cc1 |
| inactive | CCOc1ccc2nc(NC(=O)C3CCCN(S(=O)(=O)c4cccc5cccnc45)C3)sc2c1 (stereo not given) |
| inactive | CN(CC(=O)Nc1nc2ccc(Cl)cc2s1)S(=O)(=O)c1ccc(Cl)cc1 |
